Experiment [1] deals with T1, MKNK1 (Homo sapiens, UniProt Q9BUB5, T385D).
T1 construct: GST (N); purchased Carna Biosciences 02-145; host or cells: insect cells (baculovirus expression system)
In words: MKNK1 kinase assay (MKNK1 TR-FRET assay). The class given is biochemical. The conditions noted are these: 10 μM ATP, 15 min preincubation. A general note: In TR-FRET formats the signal depends on donor and acceptor labels being close together.

Experiment [2] deals with T1, MKNK1. The experiment in a line: MKNK1 kinase high ATP assay (TR-FRET-based). The class given is biochemical. The conditions noted are these: 2 mM ATP, 15 min preincubation. In a few lines: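 GST-tagged full-length human MKNK1 (aa 1-424, T344D) from insect cells, preincubated with compound 15 min at 22 °C. Reaction 30 min at 22 °C with 2 mM ATP and 0.06 μM biotinylated peptide in HEPES pH 7.5, Mg2+, DTT. Phosphopeptide detected by TR-FRET (665/622 ratio) with anti-pS6 (pSer236) antibody; normalised to no-inhibitor and no-enzyme controls.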

This note sets out measurements from patent US20160287589A1, “SUBSTITUTED-IMIDAZOPYRIDAZINES” (BAYER PHARMA AKTIENGESELLSCHAFT, priority 2013, published 2016).

The IC50 is the point on the concentration scale where inhibition reaches its midpoint. High values mean lower potency, low ones higher potency.

T1 sequence (Q9BUB5 1-424 isoform Q9BUB5-2 T344D): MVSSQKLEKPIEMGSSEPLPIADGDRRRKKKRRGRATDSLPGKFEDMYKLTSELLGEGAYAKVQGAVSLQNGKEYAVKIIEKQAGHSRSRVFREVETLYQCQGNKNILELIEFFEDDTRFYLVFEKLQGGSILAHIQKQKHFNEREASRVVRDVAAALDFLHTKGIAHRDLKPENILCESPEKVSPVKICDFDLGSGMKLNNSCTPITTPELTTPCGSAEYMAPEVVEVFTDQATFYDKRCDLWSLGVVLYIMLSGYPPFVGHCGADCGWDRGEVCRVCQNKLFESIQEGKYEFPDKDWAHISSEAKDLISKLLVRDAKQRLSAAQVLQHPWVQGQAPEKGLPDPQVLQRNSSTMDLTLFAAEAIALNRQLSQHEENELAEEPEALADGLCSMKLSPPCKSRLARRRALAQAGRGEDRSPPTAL

Regarding `CCN(CCOC)c1cccc2oc(-c3cnc4ccc(OC[C@H]5CCC(=O)N5)nn34)cc12` [II-17, (5R)-5-{[(3-{4-[Ethyl(2-methoxyethyl)amino]-1-benzofuran-2-yl}imidazo[1,2-b]-pyridazin-6-yl)oxy]methyl}pyrrolidin-2-one], the values for the IC50 in experiment [1] (Table 1b) and in experiment [2] (Table 2b) were 0.6 nM and 0.5 nM, respectively.
The matching figures for `C[C@H]1CN(c2cccc3oc(-c4cnc5ccc(OC[C@H]6CCC(=O)N6)nn45)cc23)CCN1` [II-53, (5R)-5-{[(3-{4-[(3S)-3-methylpiperazin-1-yl]-1-benzofuran-2-yl}imidazo[1,2-b]pyridazin-6-yl)oxy]methyl}pyrrolidin-2-one]: 1.1 nM and 1.1 nM.
In the case of `C[C@H](N)COc1ccc2ncc(-c3cc4c(N5CCN(c6ccccc6)CC5)nccc4o3)n2n1` [III-23, (2S)-1-({3-[4-(4-Phenylpiperazin-1-yl)furo[3,2-c]pyridin-2-yl]imidazo[1,2-b]pyridazin-6-yl}oxy)propan-2-amine], the figures for the IC50 in experiment [1] (Table 1c) and in experiment [2] (Table 2c) were 16.6 nM and 45 nM, respectively.
For `CC(C)(C)CC(=O)NCCOc1ccc2ncc(-c3cc4ccccc4o3)n2n1` [Example I-17, N-(2-{[3-(1-Benzofuran-2-yl)imidazo[1,2-b]pyridazin-6-yl]oxy}ethyl)-3,3-dimethylbutanamide], the results for the IC50 in experiment [1] (Table 1a) and in experiment [2] (Table 2a) were 4.6 nM and 13.7 nM, respectively.
The matching figures for `Cc1cccc(C(=O)NCCOc2ccc3ncc(-c4cc5ccccc5o4)n3n2)c1` [Example I-69, N-(2-{[3-(1-Benzofuran-2-yl)imidazo[1,2-b]-pyridazin-6-yl]oxy}ethyl)-3-methylbenzamide]: 13.7 nM and 36.9 nM.
As to `CC(C)Oc1nccc2oc(-c3cnc4ccc(OC[C@H]5CCC(=O)N5)nn34)cc12` [IV-4, (5R)-5-[({3-[4-(Propan-2-yloxy)furo[3,2-c]pyridin-2-yl]imidazo[1,2-b]pyridazin-6-yl}oxy)methyl]pyrrolidin-2-one], the values for the IC50 in experiment [1] (Table 1d) and in experiment [2] (Table 2d) were 2 nM and 4 nM, respectively.
On to `C[C@H](N)COc1ccc2ncc(-c3cc4c(N5CCC[C@@H]5CO)nccc4o3)n2n1` [III-14, {(2R)-1-[2-(6-{[(2S)-2-Aminopropyl]oxy}imidazo[1,2-b]pyridazin-3-yl)furo-[3,2-c]pyridin-4-yl]pyrrolidin-2-yl}methanol], for which the half-maximal inhibitory concentration (IC50) in experiment [1] (Table 1c) was 6.9 nM; in experiment [2] (Table 2c), 17.9 nM.
`COc1ccc2ncc(-c3cc4c(N5CCN[C@H](C)C5)nccc4o3)n2n1` [III-144, 6-methoxy-3-{4-[(3R)-3-methylpiperazin-1-yl]furo[3,2-c]pyridin-2-yl}imidazo[1,2-b]pyridazine]: the 50% inhibitory concentration (IC50) is 4.6 nM in experiment [1] (Table 1c) and 6.7 nM in experiment [2] (Table 2c).
The like results for `CC1(C)CN(c2nccc3oc(-c4cnc5ccc(O[C@H]6C[C@H](N)C6)nn45)cc23)CCO1` [III-129, trans-3-({3-[4-(2,2-dimethylmorpholin-4-yl)furo[3,2-c]pyridin-2-yl]imidazo[1,2-b]pyridazin-6-yl}oxy)cyclobutanamine] were, in that order, 16.8 nM and 14.1 nM.
The like results for `C[C@@H]1COCCN1c1nccc2oc(-c3cnc4ccc(OC[C@@H](C)N)nn34)cc12` [III-3, (2R)-1-[(3-{4-[(3R)-3-Methylmorpholin-4-yl]furo[3,2-c]pyridin-2-yl}imidazo-[1,2-b]pyridazin-6-yl)oxy]propan-2-amine] were, in that order, 6.7 nM and 11.7 nM.
Turning to `COc1ccc2ncc(-c3cc4c(N5CCNCC5)cccc4o3)n2n1` [II-21, 6-Methoxy-3-[4-(piperazin-1-yl)-1-benzofuran-2-yl]imidazo[1,2-b]pyridazine], the half-maximal inhibitory concentration (IC50) in experiment [1] (Table 1b) and in experiment [2] (Table 2b) was 0.3 nM in each case.
`CC(=O)N1CCC[C@H]1CCOc1ccc2ncc(-c3cc4cc(Cl)ccc4o3)n2n1` [Example I-31, 1-[(2S)-2-(2-{[3-(5-Chloro-1-benzofuran-2-yl)imidazo[1,2-b]pyridazin-6-yl]oxy}ethyl)pyrrolidin-1-yl]ethanone]: the half-maximal inhibitory concentration (IC50) in experiment [1] (Table 1a) is 16.7 nM; in experiment [2] (Table 2a) it was 35.2 nM.
